For one test, the system named is metastatic RCC. The conditions noted are these: monotherapy, cited from earlier work.
For another test, the system named is NCC432 tumors. Briefly: Tumor formation and survival of NSG mice bearing NCC432 isogenic cells. The test is classed as in vivo. The method, then:
(§1) Colony formation of parental (WT) or PBRM1 knockout (KO) 786-O cells expressing shRNA against non-targeting control (NC), RELA, or NFKB1 cultured with a) 10% or b) 2% serum. c) Gene expression changes of NF-κB target genes in 786-O cells treated with 0.006 μM bortezomib (BTZ) or 0.6 µM Bay 11-7085 for 24 hours (n=3 technical replicates). * p-value<0.05 (two-sided t-test). […] A positive log fold change refers to gain in bortezomib treatment over DMSO. g) Colony formation of 786-O isogenic cells and h) NCC432 isogenic cells treated with bortezomib for a week. Tumor formation of isogenic 786-O cells (i) and NCC432 cells (j) treated with PBS control or 0.5 mg/kg bortezomib (BTZ) in NSG mice. (n=10 tumors per group for 786-O, and n=16 tumors for NCC432 PBS EV group and 12 tumors for NCC432 PBS PBRM1 group and 14 tumors for both NCC432 EV and PBRM1 BTZ groups). Data are presented as mean values+/−SEM. k) Model for the study.
Data are presented as median+/−25%. Lower whisker is smallest observation greater than or equal to 25% quantile-1.5*interquantile range (IQR). Upper whisker represents the largest observation less than or equal to 75%+1.5*IQR. Amount of normalized RELA protein in the c) input or d) co-immunoprecipitated with SMARCA4 from 3 independent runs. Data are presented as mean values+/−SD. e) Tornado plots of RELA and SMARCA4 ChIP-seq signals in parental 786-0 or PBRM1-KO 786-O cells treated with DMSO or 0.005 μM bortezomib for 9 hours. f) Kaplan-Meier curves of NSG mice bearing 786-O isogenic cells treated with PBRM1 control or 0.5 mg/kg bortezomib (WT: n=10 PBS arm, median survival=39 days; n=10 bortezomib arm, median survival=52 days, HR=4.1, p=3E-6, log rank test; KO: n=10 PBS arm, median survival=35 days, n=10 bortezomib arm, median survival=66 days, HR=4.1, p=3E-6, log rank test). g) Kaplan-Meier curves of NSG mice bearing NCC432 isogenic cells treated with PBRM1 control or 0.5 mg/kg bortezomib (EV: n=16 PBS arm, median survival=42 days; n=14 bortezomib arm, median survival=49 days, HR=2.5, p=0.0009, log rank test; PBRM1: n=12 PBS arm, median survival=55 days; n=14 bortezomib arm, median survival=58 days, HR=1.2, p=0.5, log rank test). h) 786-O PBRM1 WT or KO cells were screened against the high-specific SGC epigenetic probe collection and cell viability was measured by colony formation after 1 week of treatment relative to DMSO control.
All animal studies were conducted in compliance with animal protocols approved by Institutional Animal Care and Use Committee (IACUC) of Singapore. Female NOD/SCID mice (8-10 week old) were implanted subcutaneously with 1×10^6 786-0 cells with either wildtype PBRM1 or PBRM1 knocked out subcutaneously. Male NSG mice (The Jackson laboratory) were implanted with 1×10^6 A498, NCC2112 or NCC432 with or without PBRM1. Tumor volume was monitored every 3-4 days. Tumor volume was calculated as (length×width×width)×π/6. Animals were sacrificed when the tumor volume exceeded 2000 mm^3.
Bortezomib […] was given twice weekly (day1, day 4) to male NSG mice (The Jackson laboratory) via the tail vein. Tumor volume and body weight were monitored every 3-4 days.

For test [1], the system named is RELA occupancy on the chromatin (786-O cells). Put plainly: RELA ChIP after bortezomib, 786-O. Format: cell-based, human. The method, then:
as §1
Data are presented as median+/−25%. Lower whisker is smallest observation greater than or equal to 25% quantile-1.5*interquantile range (IQR). Upper whisker represents the largest observation less than or equal to 75%+1.5*IQR. Amount of normalized RELA protein in the c) input or d) co-immunoprecipitated with SMARCA4 from 3 independent runs. […]

The mark [2] stands for this setting: phase II trial of 37 patients with metastatic RCC.

Molecules are shown by their SMILES.

Take `CC(C)C[C@H](NC(=O)[C@H](Cc1ccccc1)NC(=O)c1cnccn1)B(O)O` [bortezomib]: the “ranking of RCC response amongst solid tumors” value in the test with metastatic RCC (literature survey of 32 trials) is “most responsive tumor type amongst all solid tumors”. For the same compound, the partial response in the test with metastatic RCC (setting [2]) was 4 patients. Also, the stable disease in the test with metastatic RCC (setting [2]) is recorded as 14 patients. For the same compound, the “survival, mice bearing PB1-deficient vs PB1-proficient cells” value in the test on NCC432 tumors (0.5 mg/kg bortezomib) was “survived for a longer duration”. In addition, in the test with NCC432 tumors (0.5 mg/kg bortezomib, NSG mice), the “tumor response, PB1-deficient vs PB1-proficient isogenic cells” value is listed as “responded better”. Also, the median survival in the test with NCC432 tumors (NCC432 EV, 0.5 mg/kg bortezomib arm n=14, PBS arm 42 days) came to 49 days; in the test with NCC432 tumors (NCC432 PBRM1, 0.5 mg/kg bortezomib arm n=14, PBS arm 55 days), 58 days. In addition, the HR in the test with NCC432 tumors (NCC432 EV, bortezomib vs PBS, p=0.0009, log rank test) was 2.5; in the test on NCC432 tumors (NCC432 PBRM1, bortezomib vs PBS, p=0.5, log rank test), 1.2. Moreover, in test [1] (786-O, 0.005 μM bortezomib, 9 hours), the “RELA occupancy (figure title)” value is on record as “abrogates RELA occupancy”. For the same compound, in test [1] (PB1 KO 786-O cells, ChIP-qPCR), the “RELA occupancy on the chromatin, PB1 KO” value was “profound reduction of RELA occupancy”.

Source of the values: US20260357349A1, “METHODS OF IDENTIFYING AND TREATING CANCER” (Agency for Science, Technology and Research, priority 2022, published 2026).
